Experiment [1] has as its target neuraminidase of A/Texas/12/2007, A (H3N2) Seasonal, E119V (Influenza A virus, UniProt D1FVK3, I119V). The experiment can be described thus: biochemical.
In experiment [2] the target is neuraminidase of B/Texas/38/2008, D197E (Influenza B virus, UniProt C7F996). The experiment can be described thus: biochemical.
In experiment [3] the target is neuraminidase of A/Thailand/1035/2008 (H1N1), H275Y and D151D/G (Influenza A virus, UniProt C7FPR4). It is filed as biochemical.
Experiment [4] concerns the target neuraminidase of A/California/07/2009, H1N1 Pandemic, WT (Influenza A virus (A/California/07/2009(H1N1)), UniProt C7FH46). The format is biochemical, 2009 pandemic H1N1 influenza virus.
Experiment [5] addresses neuraminidase of 2009 pandemic H1N1 H275Y variant virus isolates (Influenza A virus, UniProt C3W5S3, H275Y). The format is biochemical, 2009 pandemic H1N1 influenza virus.
The target of experiment [6] is neuraminidase of A/Texas/48/2009, H1N1 Pandemic, H275Y (Influenza A virus, UniProt C6KP13, H275Y). It is filed as biochemical, 2009 pandemic H1N1 influenza virus.
Experiment [7] addresses neuraminidase of seasonal influenza A(H1N1) H275Y variant virus isolates (Influenza A virus, UniProt A8C8J7, H275Y). It is filed as biochemical.
Experiment [8] addresses neuraminidase of A/Washington/10/2008, A (H1N1) Seasonal, WT (Influenza A virus, UniProt G3LYQ1). The format is biochemical.
In experiment [9] the target is neuraminidase of B/Memphis/20/1996, B Seasonal, R152K (Influenza B virus, UniProt R4KWM8, R150K). The format is biochemical.
Experiment [10] has as its target neuraminidase of A/Florida/21/2008, A (H1N1) Seasonal, H275Y (Influenza A virus, UniProt G3LYQ1, H275Y). It is filed as biochemical.
Experiment [11] concerns the target neuraminidase of A/Washington/01/2007, A (H3N2) Seasonal, WT (Influenza A virus, UniProt A7UPN3). The experiment can be described thus: biochemical.
Experiment [12] has as its target neuraminidase of A/Ontario/RV0442/2009, A(H3N2), D151V and V50M (Influenza A virus, UniProt X2GPU4, D151V/V50M). The format is biochemical.
For experiment [13], the target named is neuraminidase of B/Memphis/20/1996, B Seasonal, WT (Influenza B virus, UniProt C7FPS7). The format is biochemical.

The values that follow come from paper PMC3185571 (Viruses, 2010).

Structures are written as SMILES. Like-named read-outs stand apart in the source and are kept apart here.

Usually IC50 stands for the midpoint of a concentration-inhibition curve. Consider `CC(=O)N[C@H]1[C@H]([C@H](O)[C@H](O)CO)OC(C(=O)O)=C[C@@H]1N=C(N)N` [Zanamivir, zanamivir], for which the IC50 in [1] came to 0.51 nM; in experiment [2] it was 10.3 nM; in [3] it was 20.6 nM.
Regarding `CCC(CC)[C@H](NC(C)=O)[C@@H]1[C@H](O)[C@@H](C(=O)O)C[C@H]1N=C(N)N` [Peramivir, peramivir], the “Fold Difference (IC50 of mutant/IC50 of wildtype virus)” value in [4] is 0.06±0.02 (1); in experiment [6], 10.06±0.01 (164); in experiment [8] it was 0.09±0.02 (1); in [1] it was 0.14±0.02 (1); in [9] it was 52.80±3.51 (176); in experiment [10], 11.27±1.36 (134). For the same compound, the “Fold Difference (IC50 of mutant/IC50 of wildtype virus)” value is on record as 0.12±0.02 (1) in experiment [11] and 0.31±0.06 (1) in [13]. Also, the concentration for half-maximal inhibition (IC50) in [5] (read-out: IC50 Mean (±SD)) was 10.4 ± 1.37 nM; in experiment [5] (read-out: IC50 Median) it was 10.3 nM; in [5] (read-out: IC50 Range), 8.1 to 12.9 nM; in [6] (read-out: Mean IC50 ± SD), 10.1 nM; in experiment [7] (read-out: IC50 Mean (±SD)), 30.6 ± 66.1 nM; in experiment [7] (read-out: IC50 Median), 12.9 nM. Further, the half-inhibitory concentration (IC50) in experiment [7] (read-out: IC50 Range) was 2.46 to 511 nM; in experiment [1] (read-out: Mean IC50 ± SD) it was 0.14 nM; in [9] (read-out: Mean IC50 ± SD) it was 52.8 nM; in [10] (read-out: Mean IC50 ± SD) it was 11.3 nM; in experiment [12], 7.48 nM; in experiment [3] (read-out: IC50) it was 295 nM. Moreover, in [7], the “fold, mean IC50 among H275Y variants over H275 wildtype viruses” value was ~300 fold.
